In US5712274A, “Thienotriazolodiazepine compounds and their pharmaceutical use” (Yoshitomi Pharmaceutical Industries, Ltd., priority 1995, dated 1998):
Like-named read-outs stand apart in the source and are kept apart here.

Tests used:
[1] = test system: TNBS-induced colitis; experiment: Effect on TNBS-induced colitis model in rats (intrarectal administration); type: in vivo, SD rats; details: 7 days
Method: Effect on trinitrobenzenesufonec acid (TNBS)-induced colitis model in rats.
Colitis was induced by intrarectal injection of TNBS solution (60 mg/ml in 50% EtOH, 500 μl/rat) to SD rats. Seven days later, rats were sacrificed, and large intestine (8 cm from anus) was cut off and weighed. Myeloperoxidase (MPO) activity in the intestinal tissue was measured as follows and taken as an indicator of leukocyte infiltration: the intestinal tissue was homogenized and a cycle of freeze-thawing of the tissue was repeated 3 times. The supernatant obtained by centrifugation was assayed for MPO activity with substrate for peroxidase (o-phenylenediamine). MPO activity in the supernatant was calculated with the commercial MPO as a standard. The increases in intestinal weight and MPO activity as described above were taken as indicators of colitis. Test compounds were suspended in 0.5% hydroxypropylmethylcellulose solution and administered intrarectally (o.2 ml/rat) for 5 days beginning on the day of TNBS injection.

[2] = test system: CD11b; experiment: Effect on CD11b expression in human histiocytic leukemia cell line, U937 cells (PDB-induced); type: cell-based; details: U-937, 72 h, read-out: Inhibitory effect on CD11b expression (IC50)
Method: Effect on CD11b expression human histiocytic leukemia cell line, U937 cells
Effect on the expression of CD11b antigen, which is the α chain of an adhesion molecule, Mac-1 expressing on the surface of leukocytgic cells, was investigated. U937 cells were suspended in RPMI1640 medium containing 20% fetal calf serum (FCS), plated with phorbol 12,13-dibutyrate (PDB, 10 ng/ml) into 96-well filtration plates, and cultured for 3 days at 37° C. in 5% CO2. After the cells were washed once with RPMI1640 medium, rat anti-human CD11b antibody (2 μg/ml) was added to each well and the plates were incubated for 1 hr on ice. After the cell were washed twice, peroxidase-conjugated anti-rat immunoglobulin antibody (1 μg/ml) was added, and the cells were incubated for 1 hr on ice. After the cells were washed 3 times, substrate for peroxidase (o-phenylenediamine) was added. After the plates were stood for 15 min at room temperature, absorbance at 490 nm was measured with a 96-well microplate reader and was regarded as a indicator of CD11b antigen expression.

[3] = test system: oxazolone-induced ear edema; experiment: Effect on oxazolone-induced ear edema in mice; type: in vivo; details: sensitized mice, 24 hr after challenge
Method: Effect on oxazolone-induced ear edema in mice.
Mice were sensitized by applying 50 μl of oxazolone solution (50 mg/ml in acetone) to their shaved abdomen on day 0. On day 7, 5 μl of oxazolone solution was applied to each surface of the right ear. After 24 hr (day 8), the right and left ears were cut off with a puncher of 6 mm in diameter and weighed with an electronic reading balance. The difference in weight between the oxazolone-treated ear (right) and untreated ear (left) was taken to reflect the extent of ear edema. Test compounds were suspended in 0.5% hydroxypropylmethycellulose solution and administered p.o. (0.1 ml/10 g body weight) on days 0 to 4 (once a day) and day 7 (twice a day).

[4] = test system: glomerulonephritis; experiment: Effect on glomerulonephritis in mice (anti-GBM antiserum); type: in vivo, female C57BL/6 mice; details: 12 days after anti-GBM antiserum, 0-5 points
Method: Effect on glomerulonephritis in mice
Rabbit immunoglobulin G solution (4 mg/ml in saline) was mixed with Freund's complete adjuvant at a ratio of 1:1 and the emulsion was prepared. The emulsion was injected into peritoneal cavity of female C57BL/6 mice (0.25 ml/mouse). After 5 days, rabbit anti-mouse glomerular basement membrane (GBM) antiserum obtained by the method of Nagai et al. (Japan. J. Pharmacol., 32, 1117, 1982) was administered i.v. (0.08 ml/mouse). […] Test compounds were suspended in 0.5% hydroxypropylmethylcellulose (HPMC) solution and administered p.o. (0.1 ml/10 g body weight) for 13 days beginning on the day of anti-GBM ant-serum injection.

[5] = test system: thioglycollate (TG) medium-induced infiltration of leukocytes; experiment: Effect on thioglycollate (TG) medium-induced infiltration of leukocytes; type: in vivo, BALB/c mice; details: TG medium 1 ml, day 4
Method: Effect on thioglycollate (TG) medium-induced infiltration of leukocytes
One ml of TG medium was injected into peritoneal cavity of BALB/c mice on day 0. On day 4, leukocytes infiltrating into the peritoneal cavity were collected with 3 ml of phosphatebuffered saline containing 0.02% EDTA and the density of leukocytes (cells/ml) was counted with an automatic blood cell counter. Total number of leukocytes (X) was calculated from the density of leukocytes (A) with the following formula.
Test compounds were suspended in 0.5% hydroxypropylmethyl-cellulose solution and administered p.o. (0.1 ml/10 g body weight) on days 0 to 3.

[6] = test system: lipopolysaccharide (LPS)-induced adhesion of leukocytes; experiment: Effect on lipopolysaccharide (LPS)-induced adhesion of leukocytes; type: in vivo, BALB/c mice; details: 6 hr after LPS
Excerpt: Effect on lipopolysaccharide (LPS)-induced adhesion of leukocytes
It has been reported that, by the administration of LPS to mice, an adhesion molecule, Mac-1-dependent leukocyte adhesion is induced, the leukocytes infiltrate into lung, liver and so on, and in result the number of peripheral blood leukocytes reduces (Morisaki et al., Clin. Immunol. Immunopathol., 61, 365-375, 1991). The effect on LPS-induced leukocyte adhesion was investigated by taking the reduction of peripheral blood leukocytes as an indicator of leukocyte adhesion.
LPS solution (50 ng/ml in saline, 0,5 ml/mouse) was injected into peritoneal cavity of BALB/c mice on day 0. Six hr after the LPS injection, the number of peripheral blood leukocytes was counted with an automatic blood cell counter. Test compounds were suspended in 0.5% hydroxypropylmethylcellulose solution and administered p.o. (0.1 ml/10 g body weight) on days -4 to 0.

[7] = test system: ELAM-1; experiment: Inhibitory effect on TNF-α-induced expression of ELAM-1 in HUVECs; type: cell-based; details: Homo sapiens, HUVEC, read-out: Inhibitory effect (IC50) on ELAM-1 expression
Method: (§1) Inhibitory effect on expression of VCAM-1 and ELAM-1 in human umbilical vein-derived endothelial cells (HUVECs)
(§2) HUVECs were suspended in 199 medium containing 20% FCS, 20 μg/ml endothelial cell growth factor derived from bovine brain, and 100 μg/ml heparin, plated into 96-well microculture plates coated with collagen, and cultured at 37° C. in 5% CO2. When cells were grown to confluence, the cells received tumour necrosis factor (TNF)-α (20 U/ml for VCAM-1 expression, 100 U/ml for ELAM-1 expression) and cultured for 5 hr. After the cells were washed once with 199 medium, mouse anti-human VCAM-1 monoclonal antibody (2 μg/ml) or rat anti-human ELAM-1 monoclonal antibody (2 μg/ml) was added, and the cells were incubated for 1 hr at room temperature. After the cells were washed twice, peroxidase-conjugated anti-mouse immunoglobulin antibody or anti-rat immunoglobulin antibody was added, and the cells were incubated for 1 hr at room temperature. After the cells were washed 3 times, 2,2'-azino-bis(3-ethylbenzothiazolone-6-sulfonic acid) was added. After the plates were stood for 15 min at room temperature, absorbance at 405 nm with a reference wave length of 490 nm was measured with a 96-well microplate reader and was regarded as a indicator of VCAM-1 or ELAM-1 expression.

[8] = test system: VCAM-1; experiment: Inhibitory effect on TNF-α-induced expression of VCAM-1 in HUVECs; type: cell-based; details: Homo sapiens, HUVEC, read-out: Inhibitory effect (IC50) on CAM-1 expression
Method: as §1, §2

[9] = test system: antigen induced Eosinophils accumulation into lungs; experiment: Effect on antigen induced eosinophils accumulation into lungs in actively sensitized guinea pigs; type: in vivo, male Dunkin-Hartley guinea pigs; details: 30 mg/kg p.o., BALF 24 h after antigen exposure
Method: Effect on antigen induced Eosinophils accumulation into lungs in actively sensitized guinea pigs
Male Dunkin-Hartley guinea pigs (4W, Japan SLC, Inc.) were used throughout this study.
Sensitized animals were orally administered (p.o.) with compound or solvent (0.5% hydroxymethylcellulose) 30 min. before final sensitization, 30 min. before antigen exposure and 4.5 h after antigen exposure.
Egg albumin (EA, 10 μg) was added to AI(OH)3 (10 mg) in sterile physiological saline (0.5 ml) and mixed in a blender. This mixture was injected intraperitoneally into recipients. And after 14 days and 21 days, the procedure was repeated. Seven days after the final sensitization procedure, Mepyramine 10 mg/kg was injected intraperitoneally into the sensitized animals. After 30 min., the animals were exposed to aerosol of 1% EA in sterile physiological saline for 5 min.
24 h after antigen exposure, the animals were killed by exsanguination and tracheae were cannulated. And the lungs were lavaged three times with 10 ml of sterile physiological saline. Lavage fluid (BALF) was centrifuged (800 rpm for 10 min. at 4° C.) and the cell pellet was resuspended in 10 ml of sterile physilolgical saline and total cell numbers in BALF were counted in a hemocytometer (MEK 4200, Nihon-kohden, Ltd.). Differential cell counts were made from centrifuged preparations stained with May-Giemsa stain.

SMILES | Intestinal weight (mean ± S.D.) ([1]; 0.01 mg/site intrarectally) [mg] | MPO activity (mean ± S.D.) ([1]; 0.01 mg/site intrarectally) | Intestinal weight (mean ± S.D.) ([1]; 0.1 mg/site intrarectally) [mg] | MPO activity (mean ± S.D.) ([1]; 0.1 mg/site intrarectally) [U/ml] | Intestinal weight (mean ± S.D.) ([1]; 1 mg/site intrarectally) [mg] | MPO activity (mean ± S.D.) ([1]; 1 mg/site intrarectally) [U/ml] | Increase in ear weight (mean ± S.D.) ([3]; 1 mg/kg p.o.) [mg] | Score (mean ± S.D.) of protein level in urine ([4]; 1 mg/kg/day p.o.) | Score (mean ± S.D.) of protein level in urine ([4]; 3 mg/kg/day p.o.) | Total number of leukocytes (mean ± S.D.) ([5]; 0.03 mg/kg/day p.o.) | Total number of leukocytes (mean ± S.D.) ([5]; 0.1 mg/kg/day p.o.) | Total number of leukocytes (mean ± S.D.) ([5]; 0.3 mg/kg/day p.o.) | also measured
Cc1sc2c(c1C)C(c1ccc(Cl)cc1)=N[C@@H](CC(=O)Nc1ccc(N)cc1)c1nnc(C)n1-2 [Example 4, (S)-N-(4-aminophenyl)-4-(4-chlorophenyl)-2,3,9-trimethyl-6H-thieno[3,2-f][1,2,4]triazolo[4,3-a][1,4]diazepine-6-acetamide] | 490.8 ± 89.9 | 0.703 ± 0,313 U/ml | 488.1 ± 24.0 | 0.511 ± 0.103 | 511.8 ± 98.5 | 0.488 ± 0.103 | – | – | – | – | – | – | –
Cc1sc2c(c1C)C(c1ccc(Cl)cc1)=N[C@@H](CC(=O)Nc1cccnc1)c1nnc(C)n1-2.Cl [Example 5, (S)-N-(3-pyridyl)-4-(4-chlorophenyl)-2,3,9-trimethyl-6H-thieno[3,2-f][1,2,4]triazolo[4,3-a][1,4]diazepine-6-acetamide hydrochloride] | – | – | – | – | – | – | 15.2 ± 0.8 | 3.44 ± 0.88 | 2.22 ± 0.44 | 1221 ± 239 × 10^4 | 990 ± 327 × 10^4 | 596 ± 165 × 10^4 | IC50 [2]: 260 nM; Increase in ear weight (mean ± S.D.) ([3]; 3 mg/kg p.o.): 14.0 ± 0.6 mg; Increase in ear weight (mean ± S.D.) ([3]; 10 mg/kg p.o.): 13.3 ± 0.5 mg; Number of peripheral blood leukocytes (mean ± S.D.) ([6]; 1 mg/kg/day p.o.): 46 ± 8 × 100/μl; Number of peripheral blood leukocytes (mean ± S.D.) ([6]; 3 mg/kg/day p.o.): 69 ± 18 × 100/μl; Number of peripheral blood leukocytes (mean ± S.D.) ([6]; 10 mg/kg/day p.o.): 103 ± 16 × 100/μl; IC50 ([7]; 5 h): 14 nM; IC50 ([8]; 5 h): 4.5 nM
Cc1sc2c(c1C)C(c1ccc(Cl)cc1)=N[C@@H](CC(=O)NCCO)c1nnc(C)n1-2 [Example 2, (S)-N-(2-hydroxyethyl)-4-(4-chlorophenyl)-2,3,9-trimethyl-6H-thieno[3,2-f][1,2,4]triazolo[4,3-a][1,4]diazepine-6-acetamide 1/4 hydrate] | – | – | – | – | – | – | 14.2 ± 0.4 | 3.25 ± 0.16 | 2.44 ± 0.53 | 1064 ± 359 × 10^4 | 594 ± 302 × 10^4 | 570 ± 203 × 10^4 | IC50 ([2]; U937 cells, PDB 10 ng/ml, 3 days): 150 nM; Increase in ear weight (mean ± S.D.) ([3]; 0.3 mg/kg p.o.): 14.3 ± 1.5 mg; IC50 ([7]; HUVECs, TNF-α 100 U/ml, 5 hr): 79 nM; IC50 ([8]; HUVECs, TNF-α 20 U/ml, 5 hr): 37 nM; Number of eosinophils [9]: 11.8 ± 3.8 × 10^6
Cc1sc2c(c1C)C(c1ccc(Cl)cc1)=N[C@@H](CC(=O)Nc1ccc(O)cc1)c1nnc(C)n1-2 [Example 3, (S)-N-(4-hydroxyphenyl)-4-(4-chlorophenyl)-2,3,9-trimethyl-6H-thieno[3,2-f][1,2,4]triazolo[4,3-a][1,4]diazepine-6-acetamide] | 501.5 ± 78.3 | 0.716 ± 0.158 U/ml | 472.0 ± 43.4 | 0.654 ± 0.109 | 460.8 ± 52.3 | 0.676 ± 0.172 | – | – | – | – | – | – | –
